Values of other authors, collected in US10314836B2, “Quinoline carboxamides for use in the treatment of multiple myeloma” (Active Biotech AB, priority 2014, dated 2019).

Test system: castrate resistant prostate cancer (CRPC) metastatic to the bone
Conditions: oral treatment

## COc1cccc2c1c(O)c(C(=O)N(C)c1ccc(C(F)(F)F)cc1)c(=O)n2C [tasquinimod, 4-hydroxy-5-methoxy-N,1-dimethyl-2-oxo-N-[4-(trifluoromethyl)phenyl]-1,2-dihydroquinoline-3-carboxamide]
  effect on overall survival: lack a sufficient effect on overall survival
